Values after ≈ are worked out from the molar mass of the structure shown. Read-outs that look alike come from different tables or passages of the source.
Columns and labels:
[1] = test system: Mycobacterium tuberculosis H37Rv; assay: Murine TB model, hematogenously disseminated tuberculosis; assay type: in vivo, BALB/c line mice; settings: 10 animals per group
[2] = Toxicity after per os administration; assay type: in vivo; settings: mice
Description: The compound of the invention (especially compound no 2=example 1 in the embodiments), is non toxic after per os administration of doses ranging up to 2000 mg/kg was the compound was well endured by animals in the first and 24 next coming hours after introducing. […] LD50 for compound 2 is >2000 mg/kg.

[3] = test system: Mycobacterium smegmatis SG 987; assay: MIC by micro broth dilution method in Mueller-Hinton broth (NCCLS); assay type: cell-based
[4] = test system: M. vaccae IMET 1010670; assay: as above; assay type: cell-based
[5] = test system: M. fortuitum B; assay: as above; assay type: cell-based
[6] = test system: Mycobacterium tuberculosis clinical isolate 6341; assay: MIC and MBC in liquid Shkolnikova medium / solid Lowenstein-Jensen medium; assay type: cell-based
[7] = Mycolicibacterium smegmatis, SG987
[8] = Mycolicibacterium vaccae, IMET1010670

CC1COC2(CCN(c3nc(=O)c4cc(C(F)(F)F)cc([N+](=O)[O-])c4s3)CC2)O1 (stereo not drawn) [Compound 2, 2-(2-methyl-1,4-dioxa-8-azaspiro[4.5]dec-8-yl)-8-nitro-6-(trifluoro-methyl)-1,3-benzothiazin-4-one]
Survival of animals ([1]; day of treatment 1, 12 mg/kg): 10 | Survival of animals ([1]; day of treatment 1, 25 mg/kg): 10 | Survival of animals ([1]; day of treatment 2, 12 mg/kg): 10 | Survival of animals ([1]; day of treatment 2, 25 mg/kg): 10 | Survival of animals ([1]; day of treatment 3, 12 mg/kg): 10 | Survival of animals ([1]; day of treatment 3, 25 mg/kg): 10 | Survival of animals ([1]; day of treatment 4, 12 mg/kg): 10 | Survival of animals ([1]; day of treatment 4, 25 mg/kg): 10 | Survival of animals ([1]; day of treatment 5, 12 mg/kg): 10 | Survival of animals ([1]; day of treatment 5, 25 mg/kg): 10 | Survival of animals ([1]; day of treatment 6, 12 mg/kg): 10 | Survival of animals ([1]; day of treatment 6, 25 mg/kg): 10 | Survival of animals ([1]; day of treatment 7, 12 mg/kg): 10 | Survival of animals ([1]; day of treatment 7, 25 mg/kg): 10 | Survival of animals ([1]; day of treatment 8, 12 mg/kg): 10 | Survival of animals ([1]; day of treatment 8, 25 mg/kg): 10 | Survival of animals ([1]; day of treatment 9, 12 mg/kg): 10 | Survival of animals ([1]; day of treatment 9, 25 mg/kg): 10 | Survival of animals ([1]; day of treatment 10, 12 mg/kg): 10 | Survival of animals ([1]; day of treatment 10, 25 mg/kg): 10 | Survival of animals ([1]; day of treatment 11, 12 mg/kg): 10 | Survival of animals ([1]; day of treatment 11, 25 mg/kg): 10 | Survival of animals ([1]; day of treatment 12, 12 mg/kg): 10 | Survival of animals ([1]; day of treatment 12, 25 mg/kg): 10 | Survival of animals ([1]; day of treatment 13, 12 mg/kg): 10 | Survival of animals ([1]; day of treatment 13, 25 mg/kg): 10 | Survival of animals ([1]; day of treatment 14, 12 mg/kg): 10 | Survival of animals ([1]; day of treatment 14, 25 mg/kg): 10 | Survival of animals ([1]; day of treatment 15, 12 mg/kg): 10 | Survival of animals ([1]; day of treatment 15, 25 mg/kg): 10 | Survival of animals ([1]; day of treatment 16, 12 mg/kg): 10 | Survival of animals ([1]; day of treatment 16, 25 mg/kg): 10 | Survival of animals ([1]; day of treatment 17, 12 mg/kg): 10 | Survival of animals ([1]; day of treatment 17, 25 mg/kg): 10 | Survival of animals ([1]; day of treatment 18, 12 mg/kg): 10 | Survival of animals ([1]; day of treatment 18, 25 mg/kg): 10 | Survival of animals ([1]; day of treatment 19, 12 mg/kg): 10 | Survival of animals ([1]; day of treatment 19, 25 mg/kg): 10 | Survival of animals ([1]; day of treatment 20, 12 mg/kg): 10 | Survival of animals ([1]; day of treatment 20, 25 mg/kg): 10 | Survival of animals ([1]; day of treatment 21, 12 mg/kg): 10 | Survival of animals ([1]; day of treatment 21, 25 mg/kg): 10 | Survival of animals ([1]; day of treatment 22, 12 mg/kg): 10 | Survival of animals ([1]; day of treatment 22, 25 mg/kg): 10 | Survival of animals ([1]; day of treatment 23, 12 mg/kg): 10 | Survival of animals ([1]; day of treatment 23, 25 mg/kg): 10 | Survival of animals ([1]; day of treatment 24, 12 mg/kg): 10 | Survival of animals ([1]; day of treatment 24, 25 mg/kg): 10 | Survival of animals ([1]; day of treatment 25, 12 mg/kg): 10 | Survival of animals ([1]; day of treatment 25, 25 mg/kg): 10 | Survival of animals ([1]; day of treatment 26, 12 mg/kg): 10 | Survival of animals ([1]; day of treatment 26, 25 mg/kg): 10 | Survival of animals ([1]; day of treatment 27, 12 mg/kg): 100% | Survival of animals ([1]; day of treatment 27, 25 mg/kg): 100% | Toxicity after per os administration ([2]; doses ranging up to 2000 mg/kg, 7 days of investigations): non toxic | LD50 ([2]; per os): > 2000 mg/kg

O=c1nc(N2CCC3(CC2)OCCO3)sc2c([N+](=O)[O-])cc([N+](=O)[O-])cc12 [Compound 3, 2-(1,4-dioxa-8-azaspiro[4.5]dec-8-yl)-6,8-dinitro-1,3-benzothiazin-4-one]
MIC [3, 7]: 0.2 µg/mL (≈ 0.507 µM) | MIC [4, 8]: 0.0015 µg/mL (≈ 0.0038 µM) | MIC ([5]; Mycolicibacterium fortuitum): 0.006 µg/mL (≈ 0.0152 µM) | melting point: 271 to 273 °C

CC1COC2(CCN(c3nc(=O)c4cc([N+](=O)[O-])cc([N+](=O)[O-])c4s3)CC2)O1 (stereo not drawn) [Compound 4, 2-(2-methyl-1,4-dioxa-8-azaspiro[4.5]decyl)-6,8-dinitro-1,3-benzothiazin-4-one]
MIC ([3]; M. smegmatis): 0.2 µg/mL (≈ 0.49 µM) | MIC ([4]; M. vaccae): 0.003 µg/mL (≈ 0.00735 µM) | MIC ([5]; M. fortuitum): 0.003 µg/mL (≈ 0.00735 µM)

CC1OC2(CCN(c3nc(=O)c4cc(C(F)(F)F)cc([N+](=O)[O-])c4s3)CC2)OC1C (stereo not drawn) [Compound 5, 2-(2,3-dimethyl-1,4-dioxa-8-azaspiro[4.5]dec-8-yl)-8-nitro-6-(trifluoromethyl)-1,3-benzothiazin-4-one]
MIC [6]: 0.39 µg/mL (≈ 0.876 µM)

CCOC1(OCC)CCN(c2nc(=O)c3cc([N+](=O)[O-])cc([N+](=O)[O-])c3s2)CC1 [Compound 6, 2-(4,4-diethoxypiperidin-1-yl)-6,8-dinitro-1,3-benzothiazin-4-one]
melting point: 179 to 181 °C

O=c1nc(N2CCC3(CC2)OCCCCO3)sc2c([N+](=O)[O-])cc([N+](=O)[O-])cc12 [Compound 7, 2-(7,12-dioxa-3-azaspiro[5.6]dodec-3-yl)-6,8-dinitro-1,3-benzothiazin-4-one]
MIC [3, 7]: 0.78 µg/mL (≈ 1.85 µM) | MIC [4, 8]: 0.003 µg/mL (≈ 0.0071 µM) | MIC ([5]; Mycolicibacterium fortuitum): 0.003 µg/mL (≈ 0.0071 µM) | melting point: 193 to 195 °C

Cc1c([N+](=O)[O-])cc2c(=O)nc(N3CCC4(CC3)OCCO4)sc2c1[N+](=O)[O-] [Compound 8, 2-(1,4-dioxa-8-azaspiro[4.5]dec-8-yl)-7-methyl-6,8-dinitro-1,3-benzothiazin-4-one]
MIC [3, 7]: 0.4 µg/mL (≈ 0.979 µM) | MIC [4, 8]: 0.025 µg/mL (≈ 0.0612 µM) | MIC ([5]; Mycolicibacterium fortuitum): 0.025 µg/mL (≈ 0.0612 µM) | melting point: 207 to 210 °C

N#Cc1cc([N+](=O)[O-])c2sc(N3CCC4(CC3)OCCO4)nc(=O)c2c1 [Compound 9, 2-(1,4-dioxa-8-azaspiro[4.5]dec-8-yl)-8-nitro-4-oxo-1,3-benzothiazine-6-carbonitrile]
melting point: 217 to 220 °C

N#Cc1cc([N+](=O)[O-])c2sc(N3CCC4(CC3)OCCCO4)nc(=O)c2c1 [Compound 11, 2-(1,5-dioxa-9-azaspiro[5.5]undec-9-yl)-8-nitro-4-oxo-1,3-benzothiazine-6-carbonitrile]
MIC ([3]; Mycolicibacterium smegmatis, SG987, M. smegmatis, read-out: MIC): 0.05 µg/mL (≈ 0.129 µM) | MIC ([4]; Mycolicibacterium vaccae, IMET1010670, M. vaccae, read-out: MIC): 0.00625 µg/mL (≈ 0.0161 µM) | MIC ([5]; Mycolicibacterium fortuitum, M. fortuitum, read-out: MIC): 0.025 µg/mL (≈ 0.0644 µM) | melting point: 230 to 232 °C

NNC(=O)c1ccncc1 [Isoniazid, reference compound]
Survival of animals ([1]; day of treatment 1, 25 mg/kg): 10 | Survival of animals ([1]; day of treatment 2, 25 mg/kg): 10 | Survival of animals ([1]; day of treatment 3, 25 mg/kg): 10 | Survival of animals ([1]; day of treatment 4, 25 mg/kg): 10 | Survival of animals ([1]; day of treatment 5, 25 mg/kg): 10 | Survival of animals ([1]; day of treatment 6, 25 mg/kg): 10 | Survival of animals ([1]; day of treatment 7, 25 mg/kg): 10 | Survival of animals ([1]; day of treatment 8, 25 mg/kg): 10 | Survival of animals ([1]; day of treatment 9, 25 mg/kg): 10 | Survival of animals ([1]; day of treatment 10, 25 mg/kg): 10 | Survival of animals ([1]; day of treatment 11, 25 mg/kg): 10 | Survival of animals ([1]; day of treatment 12, 25 mg/kg): 10 | Survival of animals ([1]; day of treatment 13, 25 mg/kg): 10 | Survival of animals ([1]; day of treatment 14, 25 mg/kg): 10 | Survival of animals ([1]; day of treatment 15, 25 mg/kg): 10 | Survival of animals ([1]; day of treatment 16, 25 mg/kg): 10 | Survival of animals ([1]; day of treatment 17, 25 mg/kg): 10 | Survival of animals ([1]; day of treatment 18, 25 mg/kg): 10 | Survival of animals ([1]; day of treatment 19, 25 mg/kg): 10 | Survival of animals ([1]; day of treatment 20, 25 mg/kg): 10 | Survival of animals ([1]; day of treatment 21, 25 mg/kg): 10 | Survival of animals ([1]; day of treatment 22, 25 mg/kg): 10 | Survival of animals ([1]; day of treatment 23, 25 mg/kg): 10 | Survival of animals ([1]; day of treatment 24, 25 mg/kg): 10 | Survival of animals ([1]; day of treatment 25, 25 mg/kg): 10 | Survival of animals ([1]; day of treatment 26, 25 mg/kg): 10 | Survival of animals ([1]; day of treatment 27, 25 mg/kg): 100%
